Where two headings read alike, the source gives them in different places.
Experiments:
[1] = test system: K562 human chronic myeloid leukemia cells; assay: MTT cytotoxicity on K562 cells; assay type: cell-based; details: K562 cells
P815 mastocytoma cells = assay: MTT cytotoxicity on P815 cells; assay type: cell-based, murine; details: 72 hr incubation
Protocol: The P815 and L1210 cell lines were obtained from American Type Tissue Culture Collection (ATCC). The cell lines were grown in Delbecco's Modified Eagle Medium (DMEM, Atlanta Biologicals) supplemented with 10% fetal bovine serum, Hepes Buffer (2 mM, Mediatech Cellgro, 25-060-Cl), L-Glutamine (2 mM, Mediatech Cellgro), and penicillin/streptomycin (50,000 units penicillin, 50,000 […], Atlanta Biologicals). Cells were maintained at 37° C. in a 5% humidified CO2 atmosphere. Cultured cells were counted using a hemocytometer and resuspended in fresh DMEM at a concentration of 8×10^5 cells/mL. This cell suspension (100 μL) was added to 96 well flat -bottom cell culture plates. At this concentration, 80,000 cells were seeded in each well. Drug solutions (dissolved in DMSO and diluted in DMEM) were added to each well (5 μL/well) resulting in final concentrations ranging from 1×10^−4 to 1×10^−12 M. Quadruplicate wells were prepared for each drug concentration. The plates were incubated for 72 hr at 37° C. in a 5% CO2 atmosphere. MTT (3-(4,5-dimethylthiazol-2-yl)-2,5-diphenyl tetrazolium bromide) was dissolved in PBS (5 mg/ml). After the indicated cell incubation period, 10 μL of this stock MTT solution was added to each well and the plates were further incubated for 4 h at 37° C. in a 5% CO2 atmosphere. […] The contents of the well were mixed thoroughly by pipetting the cell suspension up and down and the plates were allowed to sit at room temperature for 15 min in order to allow for full development of the purple color. The plates were read on a Dynatech Plate Reader, utilizing Dynex Revelation 3.2 software, with a test wavelenth of 570 nm and a reference wavelength of 630 nm.

COLO 205 = assay: NCI screen, COLO 205 (Colon Cancer); assay type: cell-based, human
Protocol: (§1) The compounds of this invention were also tested against the panel of 60 human cancer cell lines at the National Cancer Institute, Bethesda, Md. […] The cytrotoxicity studies were conducted using a 48 hour exposure, and measuring the optical density of sulforhodamide B-derived color.

T-47D = assay: NCI screen, T-47D (Breast Cancer); assay type: cell-based, human
Protocol: as §1

Protocol for OVCAR-5: as §1
Protocol for UO-31: as §1

O=C(Nc1cc(O)ccc1CCCl)c1cc2cc(NC(=O)c3cc4ccccc4o3)ccc2[nH]1 [Compound 1, 4-(2-Chloroethyl)-3-[5-(5-benzofuran-2-carboxamido)indole-2-carboxamido]phenol]
IC50 ([1]; continuous exposure (3 days), read-out: IC50 continuous exposure (3 days)): 1.47 ± 0.8 µM | IC50 ([1]; read-out: IC50 1 hour exposure, 1 hour exposure): 12.1 ± 1.8 µM | CC50 (UO-31): 20 µM | IC50 (P815 mastocytoma cells): 43 µM | CC50 (OVCAR-5): 20 µM | Percent Growth (OVCAR-5): −29% | GI50 (OVCAR-5; OVCAR-5): 2.28 µM | TGI (OVCAR-5; OVCAR-5): 5.80E−06 Molar | Percent Growth (OVCAR-5; OVCAR-5, Log10 Concentration −4.0): −99% | Percent Growth (OVCAR-5; OVCAR-5, Log10 Concentration −6.0): 94% | Percent Growth (OVCAR-5; OVCAR-5, Log10 Concentration −7.0): 95% | Percent Growth (OVCAR-5; OVCAR-5, Log10 Concentration −8.0): 94%

COC(=O)c1[nH]c2c(O)cc(NC(=O)c3cc4cc(OC)c(OC)c(OC)c4[nH]3)c(CCCl)c2c1C(=O)OC [Compound 22, Dimethyl 4-(2-chloroethyl)-7-hydroxy-5-(5,6,7-trimethoxyindole-2-carboxamido)indole-2,3-dicarboxylate]
TGI (COLO 205; 48 hour exposure): >5.00E−05 Molar | Percent Growth (COLO 205; Log10 Concentration −4.3, 48 hour exposure): 20% | Percent Growth (COLO 205; Log10 Concentration −5.3, 48 hour exposure): 23% | Percent Growth (COLO 205; Log10 Concentration −6.3, 48 hour exposure): 31% | Percent Growth (COLO 205; Log10 Concentration −7.3, 48 hour exposure): 88% | Percent Growth (COLO 205; Log10 Concentration −8.3, 48 hour exposure): 95% | CC50 (T-47D; Homo sapiens, T47D, 48 h, read-out: LC50): > 50 µM | GI50 (T-47D; Homo sapiens, T47D, T-47D, 48 hour exposure): 0.171 µM | TGI (T-47D; T-47D, 48 hour exposure): >5.00E−05 Molar | Percent Growth (T-47D; T-47D, Log10 Concentration −4.3, 48 hour exposure): 14% | Percent Growth (T-47D; T-47D, Log10 Concentration −5.3, 48 hour exposure): 33% | Percent Growth (T-47D; T-47D, Log10 Concentration −6.3, 48 hour exposure): 29% | Percent Growth (T-47D; T-47D, Log10 Concentration −7.3, 48 hour exposure): 74% | Percent Growth (T-47D; T-47D, Log10 Concentration −8.3, 48 hour exposure): 100%

Reference: patent US6660742B2, “Compositions and methods of the use thereof achiral analogues of CC-1065 and the duocarmycins” (priority 2000, dated 2003)
